Data taken from patent US11739098B2 (BRISTOL-MYERS SQUIBB COMPANY, priority 2017, dated 2023).
pIC50: −log10 of the molar value.

Experiments:
Assay type in all cases: cell-based
human TLR7 = molecular target: T1, human TLR7 (Homo sapiens, UniProt Q9NYK1); assay: TLR7 inhibition reporter assay (HEK-Blue cells, SEAP reporter, gardiquimod stimulation); settings: HEK-Blue cells overexpressing human TLR7, SEAP reporter, gardiquimod 7.5 μM
T1 construct: host or cells: HEK-Blue cells (HEK293-derived reporter line)
T1 sequence (Q9NYK1 27-1049): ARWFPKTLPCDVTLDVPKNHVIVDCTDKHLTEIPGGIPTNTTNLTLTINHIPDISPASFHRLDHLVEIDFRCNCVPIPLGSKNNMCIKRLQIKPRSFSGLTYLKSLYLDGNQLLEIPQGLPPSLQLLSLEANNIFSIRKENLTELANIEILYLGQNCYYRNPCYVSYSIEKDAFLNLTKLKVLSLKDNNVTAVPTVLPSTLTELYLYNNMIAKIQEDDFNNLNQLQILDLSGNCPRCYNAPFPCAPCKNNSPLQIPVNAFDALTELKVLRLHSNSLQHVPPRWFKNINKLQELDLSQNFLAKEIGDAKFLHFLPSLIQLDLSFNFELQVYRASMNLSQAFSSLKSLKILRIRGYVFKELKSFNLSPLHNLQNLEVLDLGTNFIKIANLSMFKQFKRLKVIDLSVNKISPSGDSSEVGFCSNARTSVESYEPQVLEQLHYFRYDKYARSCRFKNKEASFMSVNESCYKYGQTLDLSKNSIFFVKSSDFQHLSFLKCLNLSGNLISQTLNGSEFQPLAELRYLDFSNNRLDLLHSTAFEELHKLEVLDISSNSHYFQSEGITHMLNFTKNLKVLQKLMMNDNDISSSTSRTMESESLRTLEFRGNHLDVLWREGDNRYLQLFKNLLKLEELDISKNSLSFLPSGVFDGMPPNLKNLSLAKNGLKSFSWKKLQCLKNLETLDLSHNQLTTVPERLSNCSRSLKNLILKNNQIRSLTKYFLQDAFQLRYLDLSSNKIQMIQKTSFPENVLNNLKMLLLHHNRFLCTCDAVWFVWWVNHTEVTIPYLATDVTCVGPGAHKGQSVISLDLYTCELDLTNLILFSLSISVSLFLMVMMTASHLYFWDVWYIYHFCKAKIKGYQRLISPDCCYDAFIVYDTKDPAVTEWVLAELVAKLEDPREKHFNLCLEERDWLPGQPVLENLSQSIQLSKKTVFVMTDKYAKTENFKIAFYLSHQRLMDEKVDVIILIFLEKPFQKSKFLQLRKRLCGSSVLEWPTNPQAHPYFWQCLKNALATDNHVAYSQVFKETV
Summary of the method: (§1)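 Read-out is SEAP activity in HEK-Blue detection medium after 22 h at 37 °C, converted to percent inhibition against agonist-plus-DMSO and reference-inhibitor controls. Cells saw compound (0.05 nM–50 μM, 30 min, room temperature) before gardiquimod 7.5 μM, R848 15.9 μM or ODN2006 5 nM for TLR7, TLR8 and TLR9, respectively.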

human TLR9 = molecular target: T2, human TLR9 (Homo sapiens, UniProt Q9NR96); assay: TLR9 inhibition reporter assay (HEK-Blue cells, SEAP reporter, ODN2006 stimulation); settings: HEK-Blue cells overexpressing human TLR9, SEAP reporter, ODN2006 5 nM
T2 construct: host or cells: HEK-Blue cells (HEK293-derived reporter line)
T2 sequence (Q9NR96 26-1032): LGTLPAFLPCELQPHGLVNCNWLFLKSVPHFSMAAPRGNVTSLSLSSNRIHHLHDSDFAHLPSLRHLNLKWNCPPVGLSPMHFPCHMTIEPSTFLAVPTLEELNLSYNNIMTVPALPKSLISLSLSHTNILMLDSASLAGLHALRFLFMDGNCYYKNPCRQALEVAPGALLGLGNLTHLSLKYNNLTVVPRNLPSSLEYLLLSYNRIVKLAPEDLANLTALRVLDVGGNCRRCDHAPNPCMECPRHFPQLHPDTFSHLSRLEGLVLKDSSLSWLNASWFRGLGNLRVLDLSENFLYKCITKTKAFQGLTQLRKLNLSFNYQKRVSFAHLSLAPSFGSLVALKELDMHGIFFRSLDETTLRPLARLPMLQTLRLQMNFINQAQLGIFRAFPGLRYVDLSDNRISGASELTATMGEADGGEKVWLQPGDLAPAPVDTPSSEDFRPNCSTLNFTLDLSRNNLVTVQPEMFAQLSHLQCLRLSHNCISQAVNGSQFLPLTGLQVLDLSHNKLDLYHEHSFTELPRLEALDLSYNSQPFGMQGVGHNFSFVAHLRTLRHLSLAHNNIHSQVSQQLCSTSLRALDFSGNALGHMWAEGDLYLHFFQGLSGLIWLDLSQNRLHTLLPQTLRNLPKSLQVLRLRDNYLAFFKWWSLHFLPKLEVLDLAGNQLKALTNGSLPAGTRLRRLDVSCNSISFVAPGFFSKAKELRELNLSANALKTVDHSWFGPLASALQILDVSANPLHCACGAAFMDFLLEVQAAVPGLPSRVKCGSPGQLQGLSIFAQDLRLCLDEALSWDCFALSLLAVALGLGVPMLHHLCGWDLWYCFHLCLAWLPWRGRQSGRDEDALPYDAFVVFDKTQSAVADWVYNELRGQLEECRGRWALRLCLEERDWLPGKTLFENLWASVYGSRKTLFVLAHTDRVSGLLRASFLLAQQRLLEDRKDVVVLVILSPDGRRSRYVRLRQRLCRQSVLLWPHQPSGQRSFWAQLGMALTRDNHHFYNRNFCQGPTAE
Summary of the method: as §1

human TLR8 = molecular target: T3, human TLR8 (Homo sapiens, UniProt Q9NR97); assay: TLR8 inhibition reporter assay (HEK-Blue cells, SEAP reporter, R848 stimulation); settings: HEK-Blue cells overexpressing human TLR8, SEAP reporter, R848 15.9 μM
T3 construct: host or cells: HEK-Blue cells (HEK293-derived reporter line)
T3 sequence (Q9NR97 27-1041): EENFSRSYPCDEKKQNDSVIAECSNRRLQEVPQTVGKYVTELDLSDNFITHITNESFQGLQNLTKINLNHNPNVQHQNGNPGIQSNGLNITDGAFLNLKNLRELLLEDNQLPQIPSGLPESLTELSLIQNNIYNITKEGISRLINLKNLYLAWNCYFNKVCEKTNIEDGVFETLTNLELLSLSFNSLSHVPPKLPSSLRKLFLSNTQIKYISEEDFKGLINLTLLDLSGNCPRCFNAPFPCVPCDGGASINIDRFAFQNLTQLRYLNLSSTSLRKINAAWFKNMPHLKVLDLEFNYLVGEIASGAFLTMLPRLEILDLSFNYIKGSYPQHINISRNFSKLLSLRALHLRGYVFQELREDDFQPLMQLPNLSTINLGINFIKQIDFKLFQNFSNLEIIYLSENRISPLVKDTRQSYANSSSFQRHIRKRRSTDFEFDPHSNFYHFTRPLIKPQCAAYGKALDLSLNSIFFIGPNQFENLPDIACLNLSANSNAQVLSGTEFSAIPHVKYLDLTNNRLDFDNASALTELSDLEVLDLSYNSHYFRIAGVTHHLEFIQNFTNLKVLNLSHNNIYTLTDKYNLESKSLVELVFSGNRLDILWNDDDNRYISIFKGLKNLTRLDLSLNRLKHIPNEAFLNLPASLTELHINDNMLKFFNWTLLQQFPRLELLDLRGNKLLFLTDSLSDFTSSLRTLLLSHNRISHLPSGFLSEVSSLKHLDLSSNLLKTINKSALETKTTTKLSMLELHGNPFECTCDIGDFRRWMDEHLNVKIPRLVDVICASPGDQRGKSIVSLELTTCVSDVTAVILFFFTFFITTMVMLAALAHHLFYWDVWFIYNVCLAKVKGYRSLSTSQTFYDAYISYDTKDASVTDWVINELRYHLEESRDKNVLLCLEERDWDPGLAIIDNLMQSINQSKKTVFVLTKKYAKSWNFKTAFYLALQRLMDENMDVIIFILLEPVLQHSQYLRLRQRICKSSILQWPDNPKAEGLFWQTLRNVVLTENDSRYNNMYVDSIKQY
Summary of the method: as §1

| Compound | pIC50 (human TLR7) | pIC50 (human TLR9) | pIC50 (human TLR8) |
| --- | --- | --- | --- |
| CN(C)CC(=O)N1CCC(c2ccc3[nH]c(-c4ccnc5[nH]ncc45)c(CC(F)F)c3c2)CC1 [Example 517, 1-(4-(3-(2,2-difluoroethyl)-2-(1H-pyrazolo[3,4-b]pyridin-4-yl)-1H-indol-5-yl)piperidin-1-yl)-2-(dimethylamino)ethan-1-one] | 6.00 to 7.00 | 6.00 to 7.00 | > 7.00 |
| Cc1cc(-c2[nH]c3ccc(C4CCN(C(=O)CN5C[C@H]6CC[C@@H](C5)O6)CC4)cc3c2C(C)C)cn2nnnc12 [Example 484, 2-((1R,5S)-8-oxa-3-azabicyclo[3.2.1]octan-3-yl)-1-(4-(3-isopropyl-2-(8-methyltetrazolo[1,5-a]pyridin-6-yl)-1H-indol-5-yl)piperidin-1-yl)ethan-1-one] | > 7.00 | 4.30 to 6.00 | > 7.00 |
| Cc1cc(-c2[nH]c3ccc(C4CCNCC4)cc3c2C(C)C)cc2c(O)c(C#N)cnc12 [Example 107, 4-hydroxy-6-(3-isopropyl-5-(piperidin-4-yl)-1H-indol-2-yl)-8-methylquinoline-3-carbonitrile] | 4.30 to 6.00 | 4.30 to 6.00 | < 5.51 |
| CC(C)c1c(-c2ccnc3[nH]ncc23)[nH]c2ccc(C3CCN(C(=O)CCN4CCCCC4)CC3)cc12 [Example 641, 1-(4-(3-isopropyl-2-(1H-pyrazolo[3,4-b]pyridin-4-yl)-1H-indol-5-yl)piperidin-1-yl)-3-(piperidin-1-yl)propan-1-one] | > 7.00 | 4.30 to 6.00 | > 7.00 |
| Cc1c(-c2ccnc3[nH]cc(-c4ccccc4)c23)[nH]c2ccc(C3CCNCC3)cc12 [Example 223, 4-(3-methyl-5-(piperidin-4-yl)-1H-indol-2-yl)-3-phenyl-1H-pyrrolo[2,3-b]pyridine] | 4.30 to 6.00 | 6.00 to 7.00 | 4.30 to 6.00 |
| Cc1c(-c2[nH]c3ccc(C4CCN(C(=O)CN(C)C)CC4)cc3c2C(C)C)c2cccnc2n1C [Example 459, 1-(4-(2-(1,2-dimethyl-1H-pyrrolo[2,3-b]pyridin-3-yl)-3-isopropyl-1H-indol-5-yl)piperidin-1-yl)-2-(dimethylamino)ethan-1-one] | > 7.00 | 4.30 to 6.00 | > 7.00 |
| CC(C)c1c(-c2c[nH]c3ncccc23)[nH]c2ccc(C3CCNCC3)cc12 [Example 17, 3-(3-isopropyl-5-(piperidin-4-yl)-1H-indol-2-yl)-1H-pyrrolo[2,3-b]pyridine] | > 7.00 | 6.00 to 7.00 | > 7.00 |

The next lines start with the values.

| pIC50 (human TLR7) | pIC50 (human TLR9) | pIC50 (human TLR8) | Compound |
| --- | --- | --- | --- |
| > 7.00 | 6.00 to 7.00 | 4.30 to 6.00 | CC(C)c1c(-c2cc(C(C)(C)O)c3nccn3c2)[nH]c2ccc(C3CCN(C(=O)CN(C)C)CC3)cc12 [Example 493, 2-(dimethylamino)-1-(4-(2-(8-(2-hydroxypropan-2-yl)imidazo[1,2-a]pyridin-6-yl)-3-isopropyl-1H-indol-5-yl)piperidin-1-yl) ethan-1-one] |
| > 7.00 | 4.30 to 6.00 | > 7.00 | Cc1cc2nnnn2cc1-c1[nH]c2ccc(C3CCN(CC(N)=O)CC3)cc2c1C(C)C [Example 315, 2-(4-(3-isopropyl-2-(7-methyltetrazolo[1,5-a]pyridin-6-yl)-1H-indol-5-yl)piperidin-1-yl)acetamide] |
| > 7.00 | 4.30 to 6.00 | > 7.00 | CC(C)NCC(=O)N1CCC(c2ccc3[nH]c(-c4ccnc5[nH]ncc45)c(C(C)C)c3c2)CC1 [Example 578, 1-(4-(3-isopropyl-2-(1H-pyrazolo[3,4-b]pyridin-4-yl)-1H-indol-5-yl)piperidin-1-yl)-2-(isopropylamino)ethan-1-one] |
| > 7.00 | 4.30 to 6.00 | > 7.00 | Cc1ccnc2c1c(-c1[nH]c3ccc(C4CCN(C5CCOCC5)CC4)cc3c1C(C)C)cn2C [Example 689, 3-(3-isopropyl-5-(1-(tetrahydro-2H-pyran-4-yl)piperidin-4-yl)-1H-indol-2-yl)-1,4-dimethyl-1H-pyrrolo[2,3-b]pyridine] |
